Counter-ions that a name gives are not always drawn. Like-named read-outs stand apart in the source and are kept apart here.
Key:
Assay in all cases: Microculture tetrazolium assay
Assay type in all cases: cell-based
SKOV3 = system: SKOV3
SKVLB = conditions: for VLB/OV3: IC50 ratio SKVLB/SKOV3; for IC50: SKVLB, read-out: IC50
T47D = conditions: read-out: IC50
LOX = conditions: read-out: IC50
HT29 = conditions: read-out: IC50
[1] = Homo sapiens, SK-OV-3, SKOV3, read-out: IC50

Compound	IC50 (SKOV3; SKOV3, read-out: IC50) [µM]	IC50 (SKVLB) [µM]	IC50 (T47D) [µM]	IC50 (LOX) [µM]	IC50 (HT29; HT29) [µM]	IC50 (SKOV3; [1]) [µM]	IC50 (T47D; Homo sapiens) [µM]	IC50 (HT29; Homo sapiens, HT-29, HT29) [µM]	VLB/OV3 (SKVLB)	IC50 (SKOV3; Homo sapiens, SK-OV-3, SKOV3) [µM]
CC[C@@H]1CC2=C(C(=O)c3cc4ccccc4c(O)c3C2=O)[C@@H](O[C@H]2C[C@H](O)[C@H](O)[C@H](C)O2)O1 [BCH-1630]		31		8.5		12	18	66	2.6	
CC(=O)[C@@H]1CC2=C(C(=O)c3cc4ccccc4c(O)c3C2=O)[C@@H](O[C@H]2C[C@H](NC(=O)C(F)(F)F)[C@H](OS(C)(=O)=O)[C@H](C)O2)O1 [BCH-2093, (1S,1R,3S)-Methyl-(6-hydroxy-1-(2',3',4',6'-tetradeoxy-3'-trifluoroacetamido-4'-O-methanesulfonyl-L-lyxohexopyranose)-5,12-dioxo-3,4,5,12-tetrahydroanthraceno[2,3-c]pyran-3-yl)ketone]		39.3		4.36		10.3	15.9	2.8	3.82	
C[C@@H]1O[C@@H](O[C@H]2O[C@H](COc3ccccc3)CC3=C2C(=O)c2cc4ccccc4c(O)c2C3=O)C[C@H](NC(=O)C(F)(F)F)[C@@H]1O (mixture of isomers) [BCH-2048, (1'S,1R,3S) and (1'S,1S,3R)-5,12-dioxo-6-hydroxy-3-phenyloxymethyl-1-(2',3',6'-trideoxy-3'-trifluoroacetamido-L-lyxohexopyranose)-3,4,5,12-tetrahydroanthraceno-[2,3-c]-pyran]		10.3		1.77		4.36	5.72	6.38	2.36	
COC[C@@H]1CC2=C(C(=O)c3cc4ccccc4c(O)c3C2=O)[C@@H](O[C@H]2C[C@H](N)[C@H](O)[C@H](C)O2)O1 [BCH-1695, (1'S ,1R,3S)-5,12-dioxo-6-hydroxy-3-methoxymethyl-1-(2',3',6'trideoxy-3'-amino-L-lyxohexopyranose)-3,4,5,12-tetrahydroanthraceno-[2,3-c]pyran]		25.6		5.23			12.8	14.8	4.46	5.74
COC[C@@H]1CC2=C(C(=O)c3cc4ccccc4c(O)c3C2=O)[C@@H](O[C@H]2C[C@H](NC(=O)C(F)(F)F)[C@H](O)[C@H](C)O2)O1 [BCH-1694, (1'S,1R,3S)-5,12-dioxo-6-hydroxy-3-methoxymethyl-1-(2',3',6'-trideoxy-3'-trifluoroacetamido-L-lyxohexopyranose)-3,4,5,12-tetrahydroanthraceno-[2,3-C]pyran]		9.54		3.58		2.99	4.49	4.31	3.19	
CC(F)(F)C1CC2=C(CO1)C(=O)c1cc3ccccc3c(O)c1C2=O (stereo not shown) [BCH-1638, 3-(1',1'-difluoroethyl)-6 and 11-hydroxy-1,2,3,4-tetrahydro-(2-oxygen)-naphthacene-5,12-dione]		> 100		> 100		> 100	> 100	> 100		
CC(=O)C1CC2=C(CS1)C(=O)c1c(cc3ccccc3c1O)C2=O (stereo not shown) [BCH-1152]		100		100		100	100	100		
CC(=O)C1CC2=C(C(=O)c3cc4ccccc4c(O)c3C2=O)C(OCCNC(=O)OC(C)(C)C)S1 (stereo not shown) [BCH-1627]		14		5		7.1	7.1	11	2.0	
COC(=O)C1CC2=C(CS1)C(=O)c1cc3ccccc3c(O)c1C2=O (stereo not shown) [BCH-1149]		41.5		25.3		30	38.5	29.7	1.38	
C[C@@H]1O[C@@H](O[C@H]2O[C@H](C3(CO)OCCCO3)CC3=C2C(=O)c2cc4ccccc4c(O)c2C3=O)C[C@H](N)[C@@H]1O [BCH-1153]		14.9		2.9		3.02	4.65	2.94	4.93	
CC(=O)C1Cc2c(O)c3c(c(O)c2C(O[C@H]2C[C@H](N=[N+]=[N-])[C@H](I)[C@H](C)O2)O1)C(=O)c1ccccc1C3=O (stereo partly shown) [BCH-1156]		100		100		26.2	100	36.2		
CC(=O)C1CC2=C(CS1)C(=O)c1cc3ccccc3c(O)c1C2=O (stereo not shown) [BCH-1151]		75		30.5		53.3	62.5	58.9	1.41	
CC[C@@H]1CO[C@@H](O[C@H]2C[C@H](NC(=O)C(F)(F)F)[C@H](O)[C@H](C)O2)C2=C1C(=O)c1c(cc3ccccc3c1O)C2=O (mixture of isomers) [BCH-2084, (1'S, 1S,4S) and (1'S,1R,4R)-5,12-dioxo-4-ethyl-6-hydroxy-1-(2',3',6'-trideoxy-3'-trifluoroacetamido-L-lyxohexopyranose)-3,4,5,12-tetrahydroanthraceno-[2,3-c]-pyran]		12		5.2		4.2	5.6	5.8		
C[C@@H]1O[C@@H](O[C@H]2O[C@H](C(=O)CO)CC3=C2C(=O)c2cc4ccccc4c(O)c2C3=O)C[C@H](NC(=O)C(F)(F)F)[C@@H]1O [BCH-1175, (1', S,1R,3S)-1,2,3,4,5,12-hexahydro-6-hydroxy-3-hydroxy-aceto-1-N-trifluoroacetyl-L-daunosamine-(2-oxo) naphthacene-5, 12-dione]		> 100		> 100		> 100	> 100	> 100		
CC(=O)OCC1(C2CC3=C(C(=O)c4cc5ccccc5c(OC(C)=O)c4C3=O)C(O)O2)OCCCO1 (stereo not shown) [BCH-734]	8.82	8.97	6.41	9.76	5.77				1.02	
COC(=O)[C@@H]1CC2=C(C(=O)c3c(cc4ccccc4c3O)C2=O)[C@@H](O)O1 (relative stereo) [BCH-703, Methyl(1,11-dihydroxy-5,12-dioxo-3,4,5,12-tetrahydroanthraceno[2,3-c]pyran-3-yl)formate]		18.5		12.8		24.8	16.4	7.38	0.75	

Now those with a lower IC50 (SKVLB), led by results:

IC50 (SKOV3; SKOV3, read-out: IC50) [µM]	IC50 (SKVLB) [µM]	IC50 (T47D) [µM]	IC50 (LOX) [µM]	IC50 (HT29; HT29) [µM]	IC50 (SKOV3; [1]) [µM]	IC50 (T47D; Homo sapiens) [µM]	IC50 (HT29; Homo sapiens, HT-29, HT29) [µM]	Compound	VLB/OV3 (SKVLB)	IC50 (SKOV3; Homo sapiens, SK-OV-3, SKOV3) [µM]
4.3	6.96	5.51	6.07	2.01				CC(=O)OCC1(C2CC3=C(C(=O)c4c(cc5ccccc5c4OC(C)=O)C3=O)C(O)O2)OCCCO1 (stereo not shown) [BCH-733]	1.62	
	7.01		3.97		6.25	8.5	8.8	C=C[C@H]1CC2=C(C(=O)c3cc4ccccc4c(O)c3C2=O)[C@H](O[C@H]2C[C@H](NC(=O)C(F)(F)F)[C@H](O)[C@H](C)O2)O1 [BCH-1155]	1.12	
	5.82		2.49		3.06	2.59	1.38	C[C@@H]1O[C@@H](O[C@@H]2O[C@@H](S(=O)(=O)c3ccccc3)CC3=C2C(=O)c2cc4ccccc4c(O)c2C3=O)C[C@H](NC(=O)C(F)(F)F)[C@@H]1O [BCH-2001]	1.90	
	2.66		3.59		2.82	5.12	3.04	CC(=O)C1CC2=C(C(=O)c3cc4ccccc4c(O)c3C2=O)C(OC[C@@H]2COC(C)(C)O2)O1 (stereo partly shown) [BCH-1661]	0.94	
	4.03		0.736		2.06	0.954	0.565	C[C@@H]1O[C@@H](O[C@H]2O[C@H](c3ccccc3)CC3=C2C(=O)c2cc4ccccc4c(O)c2C3=O)C[C@H](N)[C@@H]1O [BCH-2012, (1'S,1R,3S)-3-(6-hydroxy-1-(2',3',6'-trideoxy-3'-amino-4'-hydroxy-L-lyxohexopyranose)-5,12-dioxo-3,4,5,12-tetrahydroanthraceno-[2,3-c]pyran-3-yl)benzene hydrochloride]	1.96	
	5.36		2.51		6.06	4.45	2.64	CC(=O)CC1CC2=C(C(=O)c3cc4ccccc4c(O)c3C2=O)C(O[C@H]2C[C@H](NC(=O)C(F)(F)F)[C@H](O)[C@H](C)O2)O1 (mixture of isomers) [BCH-2097, (1'S,1R,3S) and (1'S,1S,3R)(6-hydroxy-1-(2',3',6'-trideoxy-3'-trifluoroacetamido-4'-hydroxy-L-lyxohexopyranose)-5,12-dioxo-3,4,5,12-tetrahydroanthraceno[2,3-c]pyran-3-yl)propanone]	0.88	
	0.306		0.209		0.247	0.442	0.156	C[C@@H]1O[C@@H](O[C@@H]2O[C@@H](COc3ccccc3)Cc3c(O)c4c(c(O)c32)C(=O)c2ccccc2C4=O)C[C@H](N)[C@@H]1O (mixture of isomers) [BCH-2059, (1'S,1R,3S) and (1'S,1S,3R)-5,12-dihydroxy-3-phenyloxymethyl-1-(2',3',6'-trideoxy-3'-amino-L-lyxohexopyranose)-1,2,3,4-tetrahydro-(2-oxygen)-naphthacene-6,11-dione-hydrochloride]	1.24	
	0.586		0.105		0.0927	0.501	0.534	CC(=O)[C@@H]1Cc2c(O)c3c(c(O)c2[C@@H](O[C@@H]2O[C@@H](C)[C@@H](O)[C@@H](N)C2I)O1)C(=O)c1ccccc1C3=O (stereo partly drawn) [BCH-2066, (1'S,1R,3S)-Methyl-(5,12-dihydroxy-1-[2',3',6'-trideoxy-3'-amino-4'hydroxy-2'-iodo-L-lyxohexopyranose]-6,11-dioxo-3,4,6,11-tetrahydroanthraceno-[2,3C]-pyran-3-yl) ketone hydrochloride]	6.32	

Source: patent US5593970A, “Heterocyclic anthracycline analogs” (priority 1994, dated 1997)
